The source of these data is US11702404B2, “GLP-1R modulating compounds” (priority 2019, dated 2023).

Series [1] has as its target GLP-1R (Homo sapiens, UniProt P43220). The experiment in a line: GLP-1R activation: cAMP increase in CHO cells stably expressing GLP-1R. The series is classed as cell-based. Particulars: cAMP increase, CHO cells stably expressing GLP-1R, 10 point dose response, 30 minutes incubation; read-out: EC50.
Series [2] in a line: Microsomal stability, human liver microsomes (predicted hepatic clearance). Particulars: predicted from in vitro microsomal stability data.

Some results are limits rather than exact numbers.

GLP-1R, sequence (P43220 24-463): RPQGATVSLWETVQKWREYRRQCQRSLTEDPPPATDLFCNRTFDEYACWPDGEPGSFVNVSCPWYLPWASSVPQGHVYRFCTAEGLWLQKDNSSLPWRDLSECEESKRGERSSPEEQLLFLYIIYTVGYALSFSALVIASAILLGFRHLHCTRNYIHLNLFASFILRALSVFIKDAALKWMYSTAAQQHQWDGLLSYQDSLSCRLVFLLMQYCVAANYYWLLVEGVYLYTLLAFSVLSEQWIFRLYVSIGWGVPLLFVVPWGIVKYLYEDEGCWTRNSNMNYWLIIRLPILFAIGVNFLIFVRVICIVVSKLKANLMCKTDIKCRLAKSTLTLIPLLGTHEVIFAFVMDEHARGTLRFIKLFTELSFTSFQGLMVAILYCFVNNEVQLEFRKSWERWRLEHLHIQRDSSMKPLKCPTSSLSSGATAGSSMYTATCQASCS

The EC50 is the concentration at which the effect is half-maximal. As for `COCCn1c(Cc2ccc(-c3cccc(OCc4cc(F)c(C#N)cc4OC)n3)cc2F)nc2ccc(C(=O)O)cc21` [Example 251, 2-(4-(6-((4-cyano-5-fluoro-2-methoxybenzyl)oxy)pyridin-2-yl)-2-fluorobenzyl)-1-(2-methoxyethyl)-1H-benzo[d]imidazole-6-carboxylic acid], in series [1], the EC50 was 0.00313 µM. For the same compound, the “Predicted Hepatic Clearance (Pred. Cl.)” value in series [2] was less than 1.83 mL/min/kg.
The corresponding values for `COCCn1c(Cc2ccc(-c3cccc(OCc4ccc(F)cc4OC)n3)cc2F)nc2ccc(C(=O)O)cc21` [Example 252, 2-(2-fluoro-4-(6-((4-fluoro-2-methoxybenzyl)oxy)pyridin-2-yl)benzyl)-1-(2-methoxyethyl)-1H-benzo[d]imidazole-6-carboxylic acid] are 0.00378 µM and less than 1.83 mL/min/kg.
`COCCn1c(Cc2ccc(-c3cccc(OCc4ccc(C#N)cc4F)n3)cc2C#Cc2cncnc2)nc2ccc(C(=O)O)cc21` [Example 254, 2-(4-(6-((4-cyano-2-fluorobenzyl)oxy)pyridin-2-yl)-2-(pyrimidin-5-ylethynyl)benzyl)-1-(2-methoxyethyl)-1H-benzo[d]imidazole-6-carboxylic acid]: the 50% effective concentration (EC50) in series [1] came out at 0.0686 µM. Also, the “Predicted Hepatic Clearance (Pred. Cl.)” value in series [2] is less than 1.83 mL/min/kg.
In the same order, the values of `COCCn1c(Cc2ccc(-c3cccc(OCc4ccc(C#N)cc4F)n3)cc2C#CCCO)nc2ccc(C(=O)O)cc21` [Example 255, 2-(4-(6-((4-cyano-2-fluorobenzyl)oxy)pyridin-2-yl)-2-(4-hydroxybut-1-yn-1-yl)benzyl)-1-(2-methoxyethyl)-1H-benzo[d]imidazole-6-carboxylic acid] are 0.00331 µM and 8.17 mL/min/kg.
The corresponding values for `COCCn1c(Cc2ccc(-c3cccc(OCc4ccc(F)cc4)n3)cc2F)nc2ccc(C(=O)O)cc21` [Example 256, 2-(2-fluoro-4-(6-((4-fluorobenzyl)oxy)pyridin-2-yl)benzyl)-1-(2-methoxyethyl)-1H-benzo[d]imidazole-6-carboxylic acid] are 0.0306 µM and 5.33 mL/min/kg.
In the same order, the values of `COCCn1c(Cc2ccc(-c3cccc(OCc4ccc(C#N)cc4F)n3)cc2C#CC2CC2)nc2ccc(C(=O)O)cc21` [Example 257, 2-(4-(6-((4-cyano-2-fluorobenzyl)oxy)pyridin-2-yl)-2-(cyclopropylethynyl)benzyl)-1-(2-methoxyethyl)-1H-benzo[d]imidazole-6-carboxylic acid] are 0.00143 µM and 5.83 mL/min/kg.
In the case of `COCCn1c(Cc2ccc(-c3cccc(OCc4ccc(C#N)cc4F)n3)c(N)c2)nc2ccc(C(=O)O)cc21` [Example 259, 2-(3-amino-4-(6-((4-cyano-2-fluorobenzyl)oxy)pyridin-2-yl)benzyl)-1-(2-methoxyethyl)-1H-benzo[d]imidazole-6-carboxylic acid], the EC50 in series [1] turned out to be 0.0669 µM. In series [2], the “Predicted Hepatic Clearance (Pred. Cl.)” value was 3.3 mL/min/kg.
As to `COCCn1c(Cc2ccc(-c3cccc(OCc4ccc(C#N)cc4F)n3)cc2-c2cc[nH]n2)nc2ccc(C(=O)O)cc21` [Example 260, 2-(4-(6-((4-cyano-2-fluorobenzyl)oxy)pyridin-2-yl)-2-(1H-pyrazol-3-yl)benzyl)-1-(2-methoxyethyl)-1H-benzo[d]imidazole-6-carboxylic acid], in series [1], the EC50 stood at 0.113 µM. Also, the “Predicted Hepatic Clearance (Pred. Cl.)” value in series [2] was 10.8 mL/min/kg.
For `COCCn1c(Cc2ccc(-c3cccc(OCc4ccc(C#N)cc4F)n3)c(Br)c2)nc2ccc(C(=O)O)cc21` [Example 261, 2-(3-bromo-4-(6-((4-cyano-2-fluorobenzyl)oxy)pyridin-2-yl)benzyl)-1-(2-methoxyethyl)-1H-benzo[d]imidazole-6-carboxylic acid], in series [1], the EC50 worked out at 0.184 µM. In addition, in series [2], the “Predicted Hepatic Clearance (Pred. Cl.)” value was 8 mL/min/kg.
Consider `COCCn1c(Cc2ccc(-c3cccc(OCc4cc(F)c(C#N)cc4F)n3)cc2F)nc2ccc(C(=O)O)cc21` [Example 262, 2-(4-(6-((4-cyano-2,5-difluorobenzyl)oxy)pyridin-2-yl)-2-fluorobenzyl)-1-(2-methoxyethyl)-1H-benzo[d]imidazole-6-carboxylic acid], for which the concentration for a half-maximal effect (EC50) in series [1] stood at 0.0286 µM. For the same compound, in series [2], the “Predicted Hepatic Clearance (Pred. Cl.)” value is less than 1.83 mL/min/kg.
As to `CC1(C)CC(Cn2c(Cc3ccc(-c4cccc(OCc5ccc(C#N)cc5F)n4)cc3F)nc3ccc(C(=O)O)cc32)O1` (stereo not shown) [Example 263, 2-(4-(6-((4-cyano-2-fluorobenzyl)oxy)pyridin-2-yl)-2-fluorobenzyl)-1-((4,4-dimethyloxetan-2-yl)methyl)-1H-benzo[d]imidazole-6-carboxylic acid], the concentration for a half-maximal effect (EC50) in series [1] turned out to be 0.0917 µM. For the same compound, in series [2], the “Predicted Hepatic Clearance (Pred. Cl.)” value is 7 mL/min/kg.
The corresponding values for `CC1(C)COC1Cn1c(Cc2ccc(-c3cccc(OCc4ccc(C#N)cc4F)n3)cc2F)nc2ccc(C(=O)O)cc21` (stereo not shown) [Example 264, 2-(4-(6-((4-cyano-2-fluorobenzyl)oxy)pyridin-2-yl)-2-fluorobenzyl)-1-((3,3-dimethyloxetan-2-yl)methyl)-1H-benzo[d]imidazole-6-carboxylic acid] are 0.0262 µM and 4 mL/min/kg.
The corresponding values for `COCCn1c(Cc2ccc(-c3cccc(OCc4cccc5c4oc4ccccc45)n3)cc2F)nc2ccc(C(=O)O)cc21` [Example 265, 2-(4-(6-(dibenzo[b,d]furan-4-ylmethoxy)pyridin-2-yl)-2-fluorobenzyl)-1-(2-methoxyethyl)-1H-benzo[d]imidazole-6-carboxylic acid] are 0.00208 µM and 5.67 mL/min/kg.
The corresponding values for `COCCn1c(Cc2ccc(-c3cccc(OCc4ccc(C5(C#N)CC5)cc4)n3)cc2F)nc2ccc(C(=O)O)cc21` [Example 266, 2-(4-(6-((4-(1-cyanocyclopropyl)benzyl)oxy)pyridin-2-yl)-2-fluorobenzyl)-1-(2-methoxyethyl)-1H-benzo[d]imidazole-6-carboxylic acid] are 0.0514 µM and 6.17 mL/min/kg.
Turning to `COCCn1c(Cc2ccc(-c3cccc(OCc4ccc(Cl)cc4OCC(F)(F)F)n3)cc2F)nc2ccc(C(=O)O)cc21` [Example 267, 2-(4-(6-((4-chloro-2-(2,2,2-trifluoroethoxy)benzyl)oxy)pyridin-2-yl)-2-fluorobenzyl)-1-(2-methoxyethyl)-1H-benzo[d]imidazole-6-carboxylic acid], in series [1], the EC50 is 0.172 µM. Further, the “Predicted Hepatic Clearance (Pred. Cl.)” value in series [2] is 4.58 mL/min/kg.
In the same order, the values of `N#CCC1(Cn2c(Cc3cc(F)c(-c4ccnc(OCc5ccc(C#N)cc5F)n4)cc3F)nc3c(F)cc(C(=O)O)cc32)CC1` [Example 268, 2-(4-(2-((4-cyano-2-fluorobenzyl)oxy)pyrimidin-4-yl)-2,5-difluorobenzyl)-1-((1-(cyanomethyl)cyclopropyl)methyl)-4-fluoro-1H-benzo[d]imidazole-6-carboxylic acid] are 0.0157 µM and 3.67 mL/min/kg.
The corresponding values for `N#Cc1ccc(COc2cccc(-c3cc(F)c(Cc4nc5ccc(C(=O)O)cc5n4Cc4ncccn4)cc3F)n2)c(F)c1` [Example 269, 2-(4-(6-((4-cyano-2-fluorobenzyl)oxy)pyridin-2-yl)-2,5-difluorobenzyl)-1-(pyrimidin-2-ylmethyl)-1H-benzo[d]imidazole-6-carboxylic acid] are 0.0517 µM and 5.83 mL/min/kg.
